# Measurements as given in patent publication US20230365628A1, “MACROCYCLIC IMMUNOMODULATORS” (Bristol-Myers Squibb Company, priority 2020, published 2023).
# *1 amine or outer side, *2 acyl side, *3 side chain or, on linkers, in order; H or OH if unused. Where a SMILES comes first, the peptide text is derived from it. Bridges are numbered along the chain shown (N, C = ends). [ ]: non-standard residue; d: D form. The star is where a group is joined. Trp(1-CH2CO) = O=C([C@H](Cc1cn(CC(=O)[*:3])c2ccccc12)N[*:1])[*:2]; Dodecyloxycarbonyl = CCCCCCCCCCCCOC(=O)*; X4 = CCc1cccc(CC)c1-c1nc(*)c2ccccc2n1; Fmoc = O=C(OCC1c2ccccc2-c2ccccc21)*; Oleoyl = CCCCCCCC/C=C\CCCCCCCC(=O)*; X2 = COc1ccc2nc(-c3ccccc3)nc(*)c2c1; Hyp = O=C(O)[C@@H]1C[C@@H](O)CN1; X1 = COC(=O)c1ccc2cnc(*)nc2c1; NMeNle = CCCC[C@H](NC)C(=O)O; X6 = CCCCCCCCCCCCCCCCOC(=O)*; NMeA = CN[C@@H](C)C(=O)O; X3 = Brc1ccc2ncnc(*)c2c1; Dab = NCC[C@H](N)C(=O)O; Dap = NC[C@H](N)C(=O)O; X5 = CC(C)(C)SC(=O)*
# Biological target: T1, PD-1/PD-L1 (Homo sapiens, UniProt Q9NZQ7)
# T1 construct: TVMV protease site linker (C); made in house; host or cells: HEK293T cells
# T1 sequence (Q9NZQ7 18-239): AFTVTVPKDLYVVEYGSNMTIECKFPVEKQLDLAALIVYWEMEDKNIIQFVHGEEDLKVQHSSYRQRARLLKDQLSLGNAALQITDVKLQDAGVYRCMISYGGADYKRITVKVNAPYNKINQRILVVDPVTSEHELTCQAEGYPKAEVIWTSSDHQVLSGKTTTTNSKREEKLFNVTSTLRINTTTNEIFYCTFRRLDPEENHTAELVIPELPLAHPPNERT
# Assay: PD-1/PD-L1 Homogenous Time-Resolved Fluorescence (HTRF) binding assay
# Conditions: PD-L1-His 10 nM, PD-1-Ig 20 nM; soluble extracellular domains
# From the text: Methods for Testing the Ability of Macrocyclic Peptides to Compete for the Binding of Pd-1 to Pd-L1 Using Homogenous Time-Resolved Fluorescence (Htrf) Binding Assays
# The ability of the compounds of formula (I) to bind to PD-L1 was investigated using a PD-1/PD-L1 Homogenous Time-Resolved Fluorescence (HTRF) binding assay.
# The interaction of PD-1 and PD-L1 can be assessed using soluble, purified preparations of the extracellular domains of the two proteins. The PD-1 and PD-L1 protein extracellular domains were expressed as fusion proteins with detection tags, for PD-1, the tag was the Fc portion of Immunoglobulin (PD-1-Ig) and for PD-L1 it was the 6 histidine motif (PD-L1-His). All binding studies were performed in an HTRF assay buffer consisting of dPBS supplemented with 0.1% […] bovine serum albumin and 0.05% (v/v) Tween-20. For the h/PD-L1-His binding assay, inhibitors were pre-incubated with PD-L1-His (10 nM final) for 15 m in 4 μl of assay buffer, followed by addition of PD-1-Ig (20 nM final) in 1 μl of assay buffer and further incubation for 15 m. HTRF detection was achieved using europium crypate-labeled anti-Ig (1 nM final) and allophycocyanin (APC) labeled anti-His (20 nM final). Antibodies were diluted in HTRF detection buffer and 5 μl was dispensed on top of the binding reaction. The reaction mixture was allowed to equilibrate for 30 minutes and the resulting signal (665 nm/620 nm ratio) was obtained using an EnVision fluorometer. Additional binding assays were established between the human proteins PD-1-Ig/PD-L2-His (20 & 5 nM, respectively) and CD80-His/PD-L1-Ig (100 & 10 nM, respectively).
# Recombinant Proteins: Human PD-1 (25-167) with a C-terminal human Fc domain of immunoglobulin G (Ig) epitope tag [hPD-1(25-167)-3S-IG] and human PD-L1 (18-239) with a C-terminal His epitope tag [hPD-L1(18-239)-TVMV-His] were expressed in HEK293T cells and purified sequentially by Protein A affinity chromatography and size exclusion chromatography. Human PD-L2-His and CD80-His was obtained through commercial sources.
# Table 1 lists the IC50 values for representative examples of this disclosure measured in the PD-1/PD-L1 Homogenous Time-Resolved Fluorescence (HTRF) binding assay.
row,IC50 [nM],Structure (SMILES)
1,120,CCCC[C@H]1C(=O)N(C)[C@@H](CCCC)C(=O)N[C@@H](CC(C)C)C(=O)N[C@H](C(=O)NCC(N)=O)CSCC(=O)N[C@@H](Cc2ccc(O)cc2)C(=O)N(C)[C@@H](C)C(=O)N[C@@H](CC(N)=O)C(=O)N2CCC[C@H]2C(=O)N[C@@H](CNc2ncc3ccc(C(=O)OC)cc3n2)C(=O)N[C@@H](CC(C)C)C(=O)N2C[C@H](O)C[C@H]2C(=O)N[C@@H](Cc2c[nH]c3ccccc23)C(=O)N[C@H]2CCNC(=O)Cn3cc(c4ccccc43)C[C@H](NC2=O)C(=O)N1C [Example 1016] ({CH2CO}-Y[NMeA]NP[Dap](X1)L[Hyp]W[Dab][Trp(1-CH2CO)][NMeNle][NMeNle]LCG-NH2; lactam 9-10; thioether N-14)
2,41,CCCC[C@H]1C(=O)N(C)[C@@H](CCCC)C(=O)N[C@@H](CC(C)C)C(=O)N[C@H](C(=O)NCC(N)=O)CSCC(=O)N[C@@H](Cc2ccc(O)cc2)C(=O)N(C)[C@@H](C)C(=O)N[C@@H](CC(N)=O)C(=O)N2CCC[C@H]2C(=O)N[C@@H](CNc2nc(-c3c(CC)cccc3CC)nc3ccccc23)C(=O)N[C@@H](CC(C)C)C(=O)N2C[C@H](O)C[C@H]2C(=O)N[C@@H](Cc2c[nH]c3ccccc23)C(=O)N[C@H]2CCNC(=O)Cn3cc(c4ccccc43)C[C@H](NC2=O)C(=O)N1C [Example 1013] ({CH2CO}-Y[NMeA]NP[Dap](X4)L[Hyp]W[Dab][Trp(1-CH2CO)][NMeNle][NMeNle]LCG-NH2; lactam 9-10; thioether N-14)
3,97,CCCC[C@H]1C(=O)N(C)[C@@H](CCCC)C(=O)N[C@@H](CC(C)C)C(=O)N[C@H](C(=O)NCC(N)=O)CSCC(=O)N[C@@H](Cc2ccc(O)cc2)C(=O)N(C)[C@@H](C)C(=O)N[C@@H](CC(N)=O)C(=O)N2CCC[C@H]2C(=O)N[C@@H](CNc2ncnc3ccc(Br)cc23)C(=O)N[C@@H](CC(C)C)C(=O)N2C[C@H](O)C[C@H]2C(=O)N[C@@H](Cc2c[nH]c3ccccc23)C(=O)N[C@H]2CCNC(=O)Cn3cc(c4ccccc43)C[C@H](NC2=O)C(=O)N1C [Example 1015] ({CH2CO}-Y[NMeA]NP[Dap](X3)L[Hyp]W[Dab][Trp(1-CH2CO)][NMeNle][NMeNle]LCG-NH2; lactam 9-10; thioether N-14)
4,1200,CCCC[C@H]1C(=O)N(C)[C@@H](CCCC)C(=O)N[C@@H](CC(C)C)C(=O)N[C@H](C(=O)NCC(N)=O)CSCC(=O)N[C@@H](Cc2ccc(O)cc2)C(=O)N(C)[C@@H](C)C(=O)N[C@@H](CC(N)=O)C(=O)N2CCC[C@H]2C(=O)N[C@@H](CNc2nc(Cl)nc3ccc(-c4ccccc4C)cc23)C(=O)N[C@@H](CC(C)C)C(=O)N2C[C@H](O)C[C@H]2C(=O)N[C@@H](Cc2c[nH]c3ccccc23)C(=O)N[C@H]2CCCC(=O)Cn3cc(c4ccccc43)C[C@H](NC2=O)C(=O)N1C [Example 1007]
5,16,CCCC[C@H]1C(=O)N(C)[C@@H](CCCC)C(=O)N[C@@H](CC(C)C)C(=O)N[C@H](C(=O)NCC(N)=O)CSCC(=O)N[C@@H](Cc2ccc(O)cc2)C(=O)N(C)[C@@H](C)C(=O)N[C@@H](CC(N)=O)C(=O)N2CCC[C@H]2C(=O)N[C@@H](CNC(=O)OCC2c3ccccc3-c3ccccc32)C(=O)N[C@@H](CC(C)C)C(=O)N2C[C@H](O)C[C@H]2C(=O)N[C@@H](Cc2c[nH]c3ccccc23)C(=O)N[C@H]2CCNC(=O)Cn3cc(c4ccccc43)C[C@H](NC2=O)C(=O)N1C [Example 1004] ({CH2CO}-Y[NMeA]NP[Dap](Fmoc)L[Hyp]W[Dab][Trp(1-CH2CO)][NMeNle][NMeNle]LCG-NH2; lactam 9-10; thioether N-14)
6,49,CCCC[C@H]1C(=O)N(C)[C@@H](CCCC)C(=O)N[C@@H](CC(C)C)C(=O)N[C@H](C(=O)NCC(N)=O)CSCC(=O)N[C@@H](Cc2ccc(O)cc2)C(=O)N(C)[C@@H](C)C(=O)N[C@@H](CC(N)=O)C(=O)N2CCC[C@H]2C(=O)N[C@@H](CNc2nc(-c3ccccc3)nc3ccc(OC)cc23)C(=O)N[C@@H](CC(C)C)C(=O)N2C[C@H](O)C[C@H]2C(=O)N[C@@H](Cc2c[nH]c3ccccc23)C(=O)N[C@H]2CCNC(=O)Cn3cc(c4ccccc43)C[C@H](NC2=O)C(=O)N1C [Example 1014] ({CH2CO}-Y[NMeA]NP[Dap](X2)L[Hyp]W[Dab][Trp(1-CH2CO)][NMeNle][NMeNle]LCG-NH2; lactam 9-10; thioether N-14)
7,0.58,CCCC[C@H]1C(=O)N(C)[C@@H](CCCC)C(=O)N[C@@H](CC(C)C)C(=O)N[C@H](C(=O)NCC(N)=O)CSCC(=O)N[C@@H](Cc2ccc(O)cc2)C(=O)N(C)[C@@H](C)C(=O)N[C@@H](CC(N)=O)C(=O)N2CCC[C@H]2C(=O)N[C@@H](CNC(=O)SC(C)(C)C)C(=O)N[C@@H](CC(C)C)C(=O)N2C[C@H](O)C[C@H]2C(=O)N[C@@H](Cc2c[nH]c3ccccc23)C(=O)N[C@H]2CCNC(=O)Cn3cc(c4ccccc43)C[C@H](NC2=O)C(=O)N1C [Example 1005] ({CH2CO}-Y[NMeA]NP[Dap](X5)L[Hyp]W[Dab][Trp(1-CH2CO)][NMeNle][NMeNle]LCG-NH2; lactam 9-10; thioether N-14)
8,280,CCCCCCCCCCCCOC(=O)NC[C@@H]1NC(=O)[C@@H]2CCCN2C(=O)[C@H](CC(N)=O)NC(=O)[C@H](C)N(C)C(=O)[C@H](Cc2ccc(O)cc2)NC(=O)CSC[C@@H](C(=O)NCC(N)=O)NC(=O)[C@H](CC(C)C)NC(=O)[C@H](CCCC)N(C)C(=O)[C@H](CCCC)N(C)C(=O)[C@@H]2Cc3cn(c4ccccc34)CC(=O)NCC[C@H](NC(=O)[C@H](Cc3c[nH]c4ccccc34)NC(=O)[C@@H]3C[C@@H](O)CN3C(=O)[C@H](CC(C)C)NC1=O)C(=O)N2 [Example 1001] ({CH2CO}-Y[NMeA]NP[Dap](Dodecyloxycarbonyl)L[Hyp]W[Dab][Trp(1-CH2CO)][NMeNle][NMeNle]LCG-NH2; lactam 9-10; thioether N-14)
9,2200,CCCCCCCCCCCCCCCCOC(=O)NC[C@@H]1NC(=O)[C@@H]2CCCN2C(=O)[C@H](CC(N)=O)NC(=O)[C@H](C)N(C)C(=O)[C@H](Cc2ccc(O)cc2)NC(=O)CSC[C@@H](C(=O)NCC(N)=O)NC(=O)[C@H](CC(C)C)NC(=O)[C@H](CCCC)N(C)C(=O)[C@H](CCCC)N(C)C(=O)[C@@H]2Cc3cn(c4ccccc34)CC(=O)NCC[C@H](NC(=O)[C@H](Cc3c[nH]c4ccccc34)NC(=O)[C@@H]3C[C@@H](O)CN3C(=O)[C@H](CC(C)C)NC1=O)C(=O)N2 [Example 1002] ({CH2CO}-Y[NMeA]NP[Dap](X6)L[Hyp]W[Dab][Trp(1-CH2CO)][NMeNle][NMeNle]LCG-NH2; lactam 9-10; thioether N-14)
10,> 10000,CCCCCCCC/C=C\CCCCCCCC(=O)NC[C@@H]1NC(=O)[C@@H]2CCCN2C(=O)[C@H](CC(N)=O)NC(=O)[C@H](C)N(C)C(=O)[C@H](Cc2ccc(O)cc2)NC(=O)CSC[C@@H](C(=O)NCC(N)=O)NC(=O)[C@H](CC(C)C)NC(=O)[C@H](CCCC)N(C)C(=O)[C@H](CCCC)N(C)C(=O)[C@@H]2Cc3cn(c4ccccc34)CC(=O)NCC[C@H](NC(=O)[C@H](Cc3c[nH]c4ccccc34)NC(=O)[C@@H]3C[C@@H](O)CN3C(=O)[C@H](CC(C)C)NC1=O)C(=O)N2 [Example 1003] ({CH2CO}-Y[NMeA]NP[Dap](Oleoyl)L[Hyp]W[Dab][Trp(1-CH2CO)][NMeNle][NMeNle]LCG-NH2; lactam 9-10; thioether N-14)
